In ChEMBL document CHEMBL5579843, “Multimechanism biological profiling of tetrahydro-β-carboline analogues as selective HDAC6 inhibitors for the treatment of Alzheimer's disease” (Eur J Med Chem, 2024) one finds Activity and IC50 data, which are given here for 1 molecule.

Assay [1] has as its system PC-12. Briefly: Neuroprotective activity against H2O2-induced oxidative damage in rat PC-12 cells assessed as increase in cell survival pretreated for 4 hrs followed by 800 uM H2O2 stimulation and measured after 24 hrs by MTT assay. It counts as functional, cell-based. Particulars: dose 1-10 µM, time 28.0 hrs.
Assay [2] has as its system PC-12. Briefly: Neuroprotective activity against H2O2-induced oxidative damage in rat PC-12 cells assessed as inhibition of apoptosis by measuring late apoptotic cells at 10 uM pretreated for 4 hrs followed by H2O2 stimulation and measured after 24 hrs by Annexin V-FITC/PI staining based flow cytometry analysis (reference value: 10.9%). Particulars: time 28 hrs. The arrangement: scale not given: the % may be the effect or the level left. It counts as functional.

The test system of assay [3] is PC-12. The experiment in a line: Neuroprotective activity against H2O2-induced oxidative damage in rat PC-12 cells assessed as reduction in intracellular LDH level by measuring residual activity at 10 uM pretreated for 4 hrs followed by H2O2 stimulation and measured after 24 hrs relative to control. It counts as functional. Particulars: time 28 hrs.
The subject of assay [4] is PC-12. Briefly: Neuroprotective activity against H2O2-induced oxidative damage in rat PC-12 cells assessed as inhibition of apoptosis by measuring dead cells at 10 uM pretreated for 4 hrs followed by H2O2 stimulation and measured after 24 hrs by Annexin V-FITC/PI staining based flow cytometry analysis (reference value: 5.10%). Particulars: time 28 hrs. Format: functional. More on the design: scale not given: the % may be the effect or the level left.

Another assay has as its target Histone deacetylase 2 (Homo sapiens, UniProt Q92769). Briefly: Inhibition of HDAC2 (unknown origin).
For assay [5], the system named is PC-12. Briefly: Upregulation of beta-3 tubulin protein expression in rat PC-12 cells measured after 24 hrs by Western blot analysis. Particulars: dose 1-10 µM. It counts as functional, cell-based.
In assay [6] the test system is SH-SY5Y. Briefly: Neuroprotective activity against H2O2-induced oxidative damage in human SH-SY5Y cells assessed as cell survival rate at 10 uM pretreated for 4 hrs followed by 200 uM H2O2 stimulation and measured after 24 hrs by MTT assay relative to control. Particulars: time 28 hrs. Format: functional.
Assay [7] relates to PC-12. The experiment in a line: Induction of neurite outgrowth in rat PC-12 cells assessed as increase in number of neurites per cells at 1 to 10 uM measured after 48 hrs by light microscopic analysis. It counts as functional, cell-based. Particulars: dose 1-10 µM.
Assay [8] concerns PC-12. The experiment in a line: Neuroprotective activity against H2O2-induced oxidative damage in rat PC-12 cells assessed as inhibition of apoptosis by measuring early apoptotic cells at 10 uM pretreated for 4 hrs followed by H2O2 stimulation and measured after 24 hrs by Annexin V-FITC/PI staining based flow cytometry analysis (reference value: 2.32%). The arrangement: scale not given: the % may be the effect or the level left. Particulars: time 28 hrs. It counts as functional.

The subject of assay [9] is SH-SY5Y. The experiment in a line: Neuroprotective activity against 6-OHDA-induced oxidative damage in human SH-SY5Y cells assessed as increase in cell survival at 1 to 10 uM pretreated for 4 hrs followed by 100 uM 6-OHDA stimulation and measured after 24 hrs by MTT assay. It counts as functional, cell-based. Particulars: dose 1-10 µM, time 28.0 hrs.
In assay [10] the test system is PC-12. Briefly: Neuroprotective activity against H2O2-induced oxidative damage in rat PC-12 cells assessed as reduction in intracellular LDH level by measuring residual activity at 5 uM pretreated for 4 hrs followed by H2O2 stimulation and measured after 24 hrs relative to control. It counts as functional. Particulars: time 28 hrs.
For assay [11], the species on record is Danio rerio. Briefly: Effect on anxiety-like behavior in scopolamine induced zebrafish alzheimer disease model assessed as exploratory behavior in upper part of aquarium by measuring increase in total swimming distance at 1 mg/L pretreated with scopolamine for 30 mins followed by compound addition for 3 mins by novel tank diving test. It counts as functional, organism-based.

Assay [12] relates to PC-12. Briefly: Upregulation of GAP-43 protein expression in rat PC-12 cells measured after 24 hrs by Western blot analysis. Format: functional, cell-based. Particulars: dose 1-10 µM.
For assay [13], the system named is PC-12. The experiment in a line: Induction of neurite outgrowth in rat PC-12 cells measured after 48 hrs by light microscopic analysis. Format: functional, cell-based. Particulars: dose 1-10 µM.
The species entered for assay [14] is Danio rerio. The experiment in a line: Cognitive improvement ability in scopolamine induced zebrafish alzheimer disease model assessed as improvement in motor activity by measuring increase in total distance of swimming at 1 mg/L pretreated with scopolamine for 30 mins followed by compound addition for 3 mins by T-maze test. Format: functional, organism-based.

pIC50: −log10 of the molar value. The source made the active and inactive calls. The calls are words filed in the database; no cut-off is given here.

Histone deacetylase 2, sequence (Q92769 whole entry): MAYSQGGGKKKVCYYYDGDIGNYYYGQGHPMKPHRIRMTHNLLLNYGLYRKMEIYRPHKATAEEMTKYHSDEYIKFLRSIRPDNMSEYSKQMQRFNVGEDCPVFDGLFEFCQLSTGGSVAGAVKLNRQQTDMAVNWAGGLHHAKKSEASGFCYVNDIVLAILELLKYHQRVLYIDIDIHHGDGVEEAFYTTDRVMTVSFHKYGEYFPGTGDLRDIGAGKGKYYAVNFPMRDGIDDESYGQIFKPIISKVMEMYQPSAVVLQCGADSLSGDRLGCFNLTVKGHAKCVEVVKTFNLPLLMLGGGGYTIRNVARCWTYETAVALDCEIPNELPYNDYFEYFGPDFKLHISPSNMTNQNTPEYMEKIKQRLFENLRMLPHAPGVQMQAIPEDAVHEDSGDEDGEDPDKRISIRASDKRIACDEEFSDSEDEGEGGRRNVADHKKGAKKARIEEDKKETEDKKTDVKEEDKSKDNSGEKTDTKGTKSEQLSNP

On to `O=C(NO)c1ccc(CN2CCc3c(n(CC4CC4)c4ccc(F)cc34)C2)cc1`, for which the Activity entry in the assay with PC-12 [1] was “Dose-Dependent Effect”; in the assay on PC-12 [2], 3.17%; with PC-12 [3] it was 35.9%; in the assay on PC-12 [4], 1.12%; with PC-12 [5] it was “Dose-Dependent Effect”; in the assay on SH-SY5Y [6] it was 78%. Also, the Activity is 4.22% in the assay on PC-12 [8], 50.2% in the assay on PC-12 [10], “Dose-Dependent Effect” in the assay on PC-12 [12] and “Dose-Dependent Effect” in the assay with PC-12 [13]. Also, at Histone deacetylase 2, the negative logarithm of the IC50 (pIC50) was 4.71. In addition, the result with PC-12 [7], in the assay on SH-SY5Y [9], in the assay listed under Danio rerio [11] and in the assay listed under Danio rerio [14] was Active.
